Drawing on patent US5684034A, “1H-indole-3-acetamide sPLA2 inhibitors” (Eli Lilly and Company, priority 1995, dated 1997), this text covers inhibition and IC50 for 19 compounds.

Read-outs that look alike come from different tables or passages of the source.

One assay concerns the target T1, sPLA2 (Homo sapiens, UniProt P14555).
T1 sequence (P14555 21-144): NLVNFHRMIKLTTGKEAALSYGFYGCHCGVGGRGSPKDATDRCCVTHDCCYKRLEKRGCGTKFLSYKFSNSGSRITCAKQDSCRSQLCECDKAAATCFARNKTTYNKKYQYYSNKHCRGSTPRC
As to the kind of experiment: Tissue test: sPLA2-induced contraction of guinea pig lung pleural strips. Further details: species or system guinea pig (male Hartley). The note with it: % suppression of sPLA2 contraction (sPLA2 10 ug/ml) at compound concentration of 30 uM, read-out: Tissue Test (sPLA2) % Supp (30 uM). The text has this: Male Hartley strain guinea pigs (500-700 g) were killed by cervical dislocation and their heart and lungs removed intact and placed in aerated (95% O2 :5% CO2) Krebs buffer. Dorsal pleural strips (4×1×25 mm) were dissected from intact parenchymal segments (8×4×25 mm) cut parallel to the outer edge of the lower lung lobes. Two adjacent pleural strips, obtained from a single lobe and representing a single tissue sample, were tied at either end and independently attached to a metal support rod. One rod was attached to a Grass force-displacement transducer (Model FTO3C, product of Grass Medical Instruments Co., Quincy, Mass., U.S.A.). […] All tissues were placed in 10 ml jacketed tissue baths maintained at 37° C. The tissue baths were continuously aerated and contained a modified Krebs solution of the following composition (millimolar) NaCl, 118.2; KCl, 4.6; CaCl2.2H2 O, 2.5; MgSO4.7H2 O, 1.2; NaHCO3, 24.8; KH2 PO4, 1.0; and dextrose, 10.0. Pleural strips from the opposite lobes of the lung were used for paired experiments. […] The tissues were allowed to equilibrate for 45 min. as the bath fluid was changed periodically.
Initially tissues were challenged 3 times with KCl (40 mM) to test tissue viability and to obtain a consistent response. After recording the maximal response to KCl, the tissues were washed and allowed to return to baseline before the next challenge. Cumulative concentration-response curves were obtained from pleural strips by increasing the agonist concentration (sPLA2) in the tissue bath by half-log10 increments while the previous concentration remained in contact with the tissues (Ref. 1, supra.) Agonist concentration was increased after reaching the plateau of the contraction elicited by the preceding concentration. One concentration-response curve was obtained from each tissue. To minimize variability between tissues obtained from different animals, contractile responses were expressed as a percentage of the maximal response obtained with the final KCl challenge. When studying the efects of various drugs on the contractile efects of sPLA2, the compounds and their respective vehicles were added to the tissues 30 min. prior to starting the sPLA2 concentration-response curves.
Data from different experiments were pooled and presented as a percentage of the maximal KCl responses (mean±S.E.). To estimate the drug induced rightward shifts in the concentration response curves, the curves were analyzed simultaneously using statistical nonlinear modeling methods similar to those described by Waud (1976), Equation 26, p. 163, (Ref. 2). The model includes four parameters: the maximum tissue response which was assumed the same for each curve, the ED50 for the control curve, the steepness of the curves, and the pA2, the concentration of antagonist chat requires a two-fold increase in agonist to achieve an equivalent response. The Schild slope was determined to be 1, using statistical nonlinear modeling methods similar to those described by Waud (1976), Equation 27, p. 164 (Ref. 2).
To estimate the drug-induced suppression of the maximal responses, sPLA2 responses (10 ug/ml) were determined in the absence and presence of drug, and percent suppression was calculated for each pair of tissues.

In assay [1] the target is T2, recombinant human secreted phospholipase A2 (Homo sapiens, UniProt P14555).
T2 sequence (P14555 21-144): T1 sequence (P14555 21-144)
Nature of the assay: Human secreted phospholipase A2 inhibition test (chromogenic assay, diheptanoyl thio-PC substrate). Format: biochemical. The note with it: pH 7.5, 40° C., 30 minutes, 405 nm. Here is the method: The following chromogenic assay procedure was used to identify and evaluate inhibitors of recombinant human secreted phospholipase A2. The assay described herein has been adapted for high volume screening using 96 well microtiter plates.
A measured volume of racetic dipheptanoyl thio PC supplied in chloroform at a concentration of 100 mg/ml is taken to dryness and redissolved in 10 millimolar TRITON X-100™ nonionic detergent aqueous solution. Reaction Buffer is added to the solution, then DTNB to give the Reaction Mixture.
The reaction mixture thus obtained contains 1 mM diheptanoly thio-PC substrate, 0.29 mm Triton X-100™ detergent, and 0.12 mm DTMB in a buffered aqueous solution at pH 7.5.
1. Add 0.2 ml reaction mixture to all wells;
2. Add 10 ul test compound (or solvent blank) to appropriate wells, mix 20 seconds:
3. Add 50 nanograms of sPLA2 (10 microliters) to appropriate wells;
4. incubate plate at 40° C. for 30 minutes;
All compounds were tested in triplicate. […] Each sample was titrated in triplicate and result values were averaged for plotting and calculation of IC50 values. […] Each IC50 value was determined three times.

The mark [2] stands for this setting: read-out: Inhibition of human secreted PLA2 IC50 ± mean deviation (3-5 tests).
Where [3] appears, read: Inhibition of human secreted PLA2 IC50 ± mean deviation (3-5 tests).

As usually defined, the IC50 is the point on the concentration scale where inhibition reaches its midpoint. On to `CCc1c(CC(N)=O)c2cc(OC)ccc2n1Cc1ccccc1` [Example 9, 2-Ethyl-5-methoxy-1-(phenylmethyl)-1H-indole-3-acetamide], for which, at sPLA2, the inhibition at 30 µM stood at 49.2 ± 9.4%. Moreover, in assay [1] (setting [2]), the IC50 was determined as 260 ± 110 nM.
Turning to `COc1ccc2c(c1)c(CC(N)=O)c(SC)n2Cc1ccccc1` [Example 12, 5-Methoxy-2-(methylthio)-1-(phenylmethyl)-1H-indole-3-acetamide], the inhibition at 30 µM at sPLA2 was determined as 30.3 ± 15.2%. The IC50 in assay [1] (setting [3]) came out at 400 ± 90 nM.
Turning to `COc1ccc2c(c1)c(CC(N)=O)c(C)n2CC1CCCCC1` [Example 4, 1-Cyclohexylmethyl-5-methoxy-2-methyl-1H-indole-3-acetamide], at sPLA2, the inhibition at 30 µM amounted to 10.5 ± 23.1%. In assay [1] (setting [2]), the concentration for half-maximal inhibition (IC50) stood at 2050 ± 850 nM.
The like results for `Cc1c(CC(N)=O)c2cc(OCCCCC(=O)O)ccc2n1Cc1ccccc1` [Example 23, 5-[[3-(2-Amino-2-oxoethyl)-2-methyl-1-(phenylmethyl)-1H-indol-5-yl]oxy]pentanoic acid] were, in that order, 83.3 ± 2.7% and 920 ± 360 nM.
Consider `Cc1c(CC(N)=O)c2cc([N+](=O)[O-])ccc2n1Cc1ccccc1` [Example 16, 2-Methyl-5-nitro-1-(phenylmethyl)-1H-indole-3-acetamide], for which the inhibition at 30 µM at sPLA2 was 51.7 ± 4.2%. The IC50 in assay [1] (setting [2]) was 1840 ± 440 nM.
For the compound `COc1ccc2c(c1)c(CC(N)=O)c(C)n2Cc1ccccc1` [Example 5, 5-Methoxy-2-methyl-1-(phenylmethyl)-1H-indole-3-acetamide], at sPLA2, the inhibition at 30 µM came to 74.9 ± 4.2%. Further, the IC50 in assay [1] (setting [2]) was found to be 840 ± 170 nM.
As for `CSc1c(CC(N)=O)c2cc(O)ccc2n1Cc1ccccc1` [Example 44, 5-Hydroxy-2-(methylthio)-1-(phenylmethyl)-1H-indole-3-acetamide], in assay [1] (unit printed aM, read-out: Inhibition of human secreted PLA2 IC50 ± mean deviation (3-5 tests)), the 50% inhibitory concentration (IC50) was 380 ± 140 nM.
`COc1ccc2c(c1)c(CC(N)=O)c(C1CC1)n2Cc1ccccc1` [Example 77, 2-Cyclopropyl-5-methoxy-1-(phenylmethyl)-1H-indole-3-acetamide]: in assay [1] (setting [2]), the concentration for half-maximal inhibition (IC50) worked out at 336 ± 23 nM.
Take `NC(=O)Cc1cn(Cc2ccccc2)c2ccc(O)cc12` [Example 82, 5-Hydroxy-1-(phenylmethyl)-1H-indole-3-acetamide]: the IC50 in assay [1] (setting [2]) turned out to be 3680 ± 190 nM.
The same measure, in the same setting: then `NC(=O)Cc1c(Br)n(Cc2ccccc2)c2cc(Cl)c(O)cc12` [Example 90, 2-Bromo-6-chloro-5-hydroxy-1-(phenylmethyl)-H-indole-3-acetamide], with 90 ± 10 nM.
With `CCOC(=O)COc1ccc2c(c1)c(CC(N)=O)c(C)n2Cc1ccccc1` [Example 18, 2-[[3-(2-Amino-2-oxoethyl)-2-methyl-1-(phenylmethyl)-1H-indol-5-yl]oxy]acetic acid ethyl ester], at sPLA2, the inhibition at 30 µM is 74.1 ± 4%. Also, the IC50 in assay [1] (setting [2]) came out at 800 ± 50 nM.
As for `COc1cccc2c1c(CC(N)=O)c(C)n2Cc1ccccc1` [Example 35, 4-Methoxy-2-methyl-1-(phenylmethyl)-1H-indole-3-acetamide], the IC50 in assay [1] (setting [2]) was found to be 2360 ± 150 nM.
For `Cc1c(CC(N)=O)c2cc(OCCC(=O)O)ccc2n1Cc1ccccc1` [Example 21, 3-[[3-(2-Amino-2-oxoethyl)-2-methyl-1-(phenylmethyl)-1H-indol-5-yl]oxy]-propanic acid], the IC50 in assay [1] (setting [3]) was determined as 430 ± 230 nM.
`CCc1c(CC(N)=O)c2cc(OCCCC(=O)NN)ccc2n1Cc1ccccc1` [Example 59]: the IC50 in assay [1] (setting [2]) amounted to 74 nM.
The same measure, in the same setting: then `COC(=O)COc1cccc2c1c(CC(N)=O)c(C)n2Cc1cccc(Cl)c1` [Example 71], with 2370 ± 790 nM.
With `CSc1c(CC(N)=O)c2cc(OCCCC(N)=O)ccc2n1Cc1ccccc1` [Example 47, 5-(4-Amino-4-oxobutoxy)-2-(methylthio)-1-(phenylmethyl)-1H-indole-3-acetamide], the IC50 in assay [1] (setting [3]) amounted to 90 ± 60 nM.
Consider `COC(=O)c1ccccc1COc1ccc2c(c1)c(CC(N)=O)c(C)n2Cc1ccccc1` [Example 96, 2-[[[3-(2-Amino-2-oxoethyl)-2-methyl-1-(phenylmethyl)-1H-indol-5-yl]oxy]methyl]benzoic acid methyl ester], for which, in assay [1] (setting [2]), the concentration for half-maximal inhibition (IC50) was 620 ± 180 nM.
The same measure, in the same setting: as for `Cc1c(CC(N)=O)c2ccc(O)cc2n1Cc1ccccc1` [Example 30, 6-Hydroxy-2-methyl-1-(phenylmethyl)-1H-indole-3-acetamide], the figure is 3610 ± 750 nM; as for `COc1ccc2c(c1)c(CC(N)=O)c(Br)n2Cc1ccccc1` [Example 42, 2-Bromo-5-methoxy-1-(phenylmethyl)-1H-indole-3-acetamide], 230 ± 60 nM.
